In test [1] the target is T1, Heat shock protein HSP90 (Homo sapiens, UniProt P07900+P08238). Description: Binding affinity to Hsp90 (unknown origin) assessed as dissociation constant incubated for 30 mins by fluorescence spectrophotometric analysis. Format: protein assay.
For test [2], the target named is T1, Heat shock protein HSP90. Briefly: Inhibition of Hsp90 (unknown origin) ATPase activity assessed as decrease in absorbance using PEP as substrate in presence of ATP and NADH by absorbance based assay. In kind it is protein assay.
Test [3] deals with K562. Briefly: Antiproliferative activity against human K562 cells assessed as cell viability inhibition rate incubated for 72 hr by MTT assay. The conditions noted are these: K562, 72 h. Format: functional, cell-based.
Test [4] deals with HCT-116. Briefly: Antiproliferative activity against human HCT-116 cells assessed as cell viability inhibition rate incubated for 72 hr by MTT assay. The conditions noted are these: HCT-116, 72 h. In kind it is functional, cell-based. For orientation: Formazan colour is commonly taken as a measure of viable cells.
The test system of test [5] is MCF7. Briefly: Antiproliferative activity against human MCF7 cells assessed as cell viability inhibition rate incubated for 72 hr by MTT assay. Format: functional, cell-based. The conditions noted are these: MCF7, 72 h.
In test [6] the test system is A549. Description: Antiproliferative activity against human A549 cells assessed as cell viability inhibition rate incubated for 72 hr by MTT assay. In kind it is functional, cell-based. The conditions noted are these: A549, 72 h.
In test [7] the test system is SK-BR-3. Description: Antiproliferative activity against human SK-BR-3 cells assessed as cell viability inhibition rate incubated for 72 hr by MTT assay. The conditions noted are these: SK-BR-3, 72 h. In kind it is functional, cell-based.

Calls of active or inactive are those of the source. No cut-off for these calls is given here.

For `CC(C)NC(=O)Oc1ccc2c(c1)CN(C(=O)c1cc(C3CC3)c(O)cc1O)C2`, the Kd (commonly a measure of binding affinity in units of concentration) in test [1] was determined as 0.02 µM. The IC50 (usually the point on the concentration scale where inhibition reaches its midpoint) in test [2] amounted to 0.27 µM.
`CC(C)c1cc(C(=O)N2C[C@@H](c3ccccc3)C[C@@H]2C(=O)NCC(=O)N2CCCCC2)c(O)cc1O`: in test [1], the result was inactive. In test [2], the inhibition result is “inactive”.
For `CCCCN(CCCC)C(=O)[C@H]1C[C@H](c2ccccc2)CN1C(=O)c1cc(C(C)C)c(O)cc1O`, the result in test [1] was inactive. In test [2], the inhibition result was “inactive”.
Turning to `CCN1CCCC1CNC(=O)[C@H]1C[C@H](c2ccccc2)CN1C(=O)c1cc(C(C)C)c(O)cc1O` (some centres undefined), the outcome in test [1] was inactive. The inhibition result in test [2] was “inactive”.
With `CC(NC(=O)[C@H]1C[C@H](c2ccccc2)CN1C(=O)c1cc(C2CC2)c(O)cc1O)c1ccccc1` (some centres undefined), the IC50 in test [3] turned out to be 0.702 µM; in test [4], 0.631 µM; in test [5], 0.101 µM; in test [6], 0.107 µM; in test [7], 0.633 µM. Besides, in test [1], the Kd is 0.201 µM.
`O=C(c1ccccc1O)N1Cc2ccccc2C1`: the Kd in test [1] was determined as 0.532 µM. Further, the IC50 in test [2] was found to be 6.94 µM.
Regarding `O=C(NCc1ccccc1F)[C@H]1C[C@H](c2ccccc2)CN1C(=O)c1cc(C2CC2)c(O)cc1O`, the IC50 was 0.411 µM in test [3]; 0.291 µM in test [4]; 0.086 µM in test [5]; 0.029 µM in test [6]; 0.312 µM in test [7]. Further, in test [1], the Kd is 0.168 µM.
As to `CC(C)c1cc(C(=O)N2C[C@@H](c3ccccc3)C[C@@H]2C(=O)NCc2ccccc2Cl)c(O)cc1O`, the IC50 in test [3] came to 0.633 µM; in test [4], 0.461 µM; in test [5], 0.103 µM; in test [6], 0.072 µM; in test [7] it was 0.572 µM. Besides, the Kd in test [1] came out at 0.351 µM.
In the case of `CC(C)CNC(=O)[C@H]1C[C@H](c2ccccc2)CN1C(=O)c1cc(C2CC2)c(O)cc1O`, the IC50 turned out to be 0.533 µM in test [3]; 0.403 µM in test [4]; 0.093 µM in test [5]; 0.089 µM in test [6]; 0.765 µM in test [7]. Moreover, in test [1], the Kd was 0.107 µM.
For `CCN1CCN(C(=O)[C@H]2C[C@H](c3ccccc3)CN2C(=O)c2cc(C(C)C)c(O)cc2O)CC1`, the result in test [1] was inactive. Besides, in test [2], the inhibition result was “inactive”.
On to `COc1ccc(CNC(=O)[C@H]2C[C@H](c3ccccc3)CN2C(=O)c2cc(C(C)C)c(O)cc2O)cc1`, for which the IC50 in test [3] was 0.541 µM; in test [4] it was 0.473 µM; in test [5] it was 0.107 µM; in test [6], 0.103 µM; in test [7] it was 0.732 µM. Also, in test [1], the equilibrium dissociation constant (Kd) amounted to 0.147 µM.
Regarding `COc1ccc(C(C)NC(=O)[C@H]2C[C@H](c3ccccc3)CN2C(=O)c2cc(C3CC3)c(O)cc2O)cc1` (some centres undefined), the IC50 in test [3] was found to be 0.667 µM; in test [4], 0.641 µM; in test [5], 0.126 µM; in test [6] it was 0.082 µM; in test [7], 0.451 µM. Moreover, the Kd in test [1] amounted to 0.263 µM.
Take `CC(C)N(Cc1cccnc1)C(=O)[C@H]1CCCN1C(=O)c1cc(C2CC2)c(OP(=O)(O)O)cc1O`: in test [1], the Kd came to 0.136 µM. Moreover, the IC50 in test [2] was 0.237 µM.
`CC(C)c1cc(C(=O)N2C[C@@H](c3ccccc3)C[C@@H]2C(=O)NCc2ccc3ccccc3n2)c(O)cc1O`: the IC50 in test [3] stood at 0.531 µM; in test [4], 0.537 µM; in test [5], 0.087 µM; in test [6], 0.078 µM; in test [7] it was 0.634 µM. Also, the Kd in test [1] was 0.432 µM.
Regarding `CC(C)CNC(=O)[C@H]1C[C@H](c2ccccc2)CN1C(=O)c1cc(C(C)C)c(O)cc1O`, the IC50 in test [3] was determined as 0.539 µM; in test [4] it was 0.435 µM; in test [5] it was 0.087 µM; in test [6], 0.063 µM; in test [7], 0.653 µM. For the same compound, in test [1], the Kd came out at 0.165 µM.
With `CC(C)c1cc(C(=O)N2C[C@@H](c3ccccc3)C[C@@H]2C(=O)NC(C)c2ccccc2)c(O)cc1O` (some centres undefined), the IC50 in test [3] was determined as 0.621 µM; in test [4] it was 0.514 µM; in test [5] it was 0.113 µM; in test [6], 0.087 µM; in test [7], 0.703 µM. For the same compound, the Kd in test [1] worked out at 0.232 µM.
For `CC(C)c1cc(C(=O)N2C[C@@H](c3ccccc3)C[C@@H]2C(=O)NC(C)C(C)C)c(O)cc1O` (some centres undefined), the IC50 in test [3] worked out at 0.566 µM; in test [4] it was 0.637 µM; in test [5], 0.185 µM; in test [6], 0.13 µM; in test [7], 0.738 µM. Besides, the Kd in test [1] was 0.345 µM.
For the compound `CC(C)N(Cc1cccnc1)C(=O)[C@H]1CCCN1C(=O)c1cc(C2CC2)c(O)cc1O`, the Kd in test [1] turned out to be 0.027 µM. Besides, in test [2], the IC50 was found to be 0.31 µM.
Consider `COCCN(CCOC)C(=O)[C@H]1C[C@H](c2ccccc2)CN1C(=O)c1cc(C2CC2)c(O)cc1O`, for which the IC50 in test [3] came out at 0.596 µM; in test [4], 0.795 µM; in test [5], 0.336 µM; in test [6] it was 0.163 µM; in test [7], 0.761 µM. Further, the Kd in test [1] amounted to 0.637 µM.
As for `O=C(NCc1ccccc1)[C@H]1C[C@H](c2ccccc2)CN1C(=O)c1cc(C2CC2)c(O)cc1O`, the IC50 was 0.451 µM in test [3]; 0.461 µM in test [4]; 0.063 µM in test [5]; 0.042 µM in test [6]; 0.307 µM in test [7]. The Kd in test [1] came to 0.067 µM.
With `CC(C)c1cc(C(=O)N2C[C@@H](c3ccccc3)C[C@@H]2C(=O)NCc2ccccc2)c(O)cc1O`, the IC50 was 0.471 µM in test [3]; 0.303 µM in test [4]; 0.061 µM in test [5]; 0.039 µM in test [6]; 0.267 µM in test [7]. Besides, in test [1], the Kd came out at 0.087 µM.
For the compound `CCOCCCNC(=O)[C@H]1C[C@H](c2ccccc2)CN1C(=O)c1cc(C2CC2)c(O)cc1O`, the IC50 in test [3] worked out at 0.504 µM; in test [4] it was 1.01 µM; in test [5], 0.183 µM; in test [6] it was 0.203 µM; in test [7], 0.733 µM. In test [1], the Kd was 0.937 µM.
Take `COc1ccc(CNC(=O)[C@H]2C[C@H](c3ccccc3)CN2C(=O)c2cc(C3CC3)c(O)cc2O)cc1`: the IC50 was determined as 0.561 µM in test [3]; 0.631 µM in test [4]; 0.167 µM in test [5]; 0.113 µM in test [6]; 0.631 µM in test [7]. Moreover, the Kd in test [1] was 0.168 µM.
Turning to `O=C(NCc1ccccc1Cl)[C@H]1C[C@H](c2ccccc2)CN1C(=O)c1cc(C2CC2)c(O)cc1O`, the IC50 worked out at 0.457 µM in test [3]; 0.301 µM in test [4]; 0.076 µM in test [5]; 0.042 µM in test [6]; 0.331 µM in test [7]. For the same compound, in test [1], the Kd came to 0.236 µM.
On to `O=C(NCc1ccccn1)[C@H]1C[C@H](c2ccccc2)CN1C(=O)c1cc(C2CC2)c(O)cc1O`, for which the IC50 in test [3] amounted to 0.876 µM; in test [4], 0.263 µM; in test [5] it was 0.047 µM; in test [6] it was 0.067 µM; in test [7], 0.351 µM. Moreover, in test [1], the Kd was found to be 0.057 µM.
On to `CC(C)c1cc(C(=O)N2C[C@@H](c3ccccc3)C[C@@H]2C(=O)NCc2ccccc2F)c(O)cc1O`, for which the IC50 was 0.631 µM in test [3]; 0.376 µM in test [4]; 0.087 µM in test [5]; 0.071 µM in test [6]; 0.462 µM in test [7]. In addition, the Kd in test [1] turned out to be 0.231 µM.

The values are drawn from ChEMBL document CHEMBL6153150, “Design, Synthesis, and Biological Evaluation of Chiral-Proline Derivatives as Novel HSP90 Inhibitors” (ACS Med Chem Lett, 2025).
